Data reported in patent US11208404B2 (PERENNA PHARMACEUTICALS, INC., priority 2017, dated 2021).
Read-outs that look alike come from different tables or passages of the source.

Tests used:
ALCAT1 [1] = molecular target: T1, ALCAT1 (Homo sapiens (Human), UniProt Q6UWP7); assay: Cell-based assay for ALCAT inhibitor compounds (H9C2 cells); settings: H9c2, 3 μM compound; H9C2 vector cell line and H9C2 with stable overexpression of ALCAT1
Description: The assay was performed on the H9C2 vector cell line and H9C2 with stable overexpression of ALCAT1. Materials used in the protocol were CoA, LPG, compounds, chloroform, methanol, 0.9% KCl, 6-well-plates, 1.5 mL tubes, DMEM, FBS, P/S and PBS.
Cells were seeded in 6-well-plates, 8×10^5 cells/well, and cultured at 37° C. in 5% CO2 overnight.
Cells were washed once with ice-cold PBS, collected in ice-cold PBS and centrifuged at 5000 rpm for 5 min at 4° C. 200 μL of chloroform: methanol (2:1) was added to the cell pellet, which was vortexed to suspend the cells and incubated at RT for 1 hr.
40 μL of 0.9% KCl was added and the sample was vortexed before centrifugation at 10000 rpm for 5 min at RT. The aqueous phase (upper layer) was discarded and the organic phase (lower layer) was loaded to a TLC plate (10 cm×20 cm), 40 μL/sample.
The plates were developed in chloroform: methanol: water (65:25:4) for about 30 min and scanned using a Typhoon Scanner. The bands intensity was analysed using ImageJ and the inhibition activity of the tested compounds was calculated.
Compound inhibitors for ALCAT1 enzyme were analyzed by an in vitro cell-based assay as detailed above.
Target sequence in this assay (Q6UWP7 whole entry, species assumed): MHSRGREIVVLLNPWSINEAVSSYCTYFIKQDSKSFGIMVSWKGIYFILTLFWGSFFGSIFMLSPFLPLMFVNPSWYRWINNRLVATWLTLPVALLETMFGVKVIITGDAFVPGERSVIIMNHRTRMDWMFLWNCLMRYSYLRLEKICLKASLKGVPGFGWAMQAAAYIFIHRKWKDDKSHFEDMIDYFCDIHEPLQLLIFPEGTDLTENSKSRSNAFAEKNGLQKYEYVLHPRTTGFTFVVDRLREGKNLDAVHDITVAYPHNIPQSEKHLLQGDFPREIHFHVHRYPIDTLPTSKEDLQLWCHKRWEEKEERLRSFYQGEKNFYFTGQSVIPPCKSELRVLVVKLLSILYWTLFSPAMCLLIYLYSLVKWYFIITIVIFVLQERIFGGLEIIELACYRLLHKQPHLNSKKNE

ALCAT1 [2] = molecular target: T1, ALCAT1; assay: In vitro acyltransferase assay for ALCAT1 inhibitors; assay type: biochemical; settings: for inhibition at 1 µM / % inh @ 1 μM: 1 μM compound; for inhibition at 1 µM / inhibition at 10 µM / % inh @ 1 μM: in vitro enzymatic assay; for inhibition at 10 µM: 10 μM compound; for IC50: ALCAT1 enzyme activity
Outline: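 Membrane fractions from Sf9 cells expressing human ALCAT1 incubated 30 min at room temperature with 100 µM MLCL or LPG and 25 µM [14C]acyl-CoA (or 100 µM NBD-CoA) in 50 mM Tris/HCl pH 7.0.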
Target sequence in this assay (Q6UWP7 whole entry): as the sequence (Q6UWP7 whole entry, species assumed) above

[3] = read-out: IC50 values (upper bounds)
[4] = triplicates, GraphPad, read-out: IC50

Row | Structure (SMILES) | inhibition at 3 µM (ALCAT1 [1]) [%] | inhibition at 1 µM (ALCAT1 [2]) [%] | inhibition at 10 µM (ALCAT1 [2]) [%] | IC50 (ALCAT1 [2]; [3]) [µM] | IC50 (ALCAT1 [2]; [4]) [µM] | % inh @ 1 μM (ALCAT1 [2])
1 | CCOc1ccc(Br)cc1C(=O)Nc1cccc(-c2nnc(-c3ccco3)o2)c1 [Compound 118, 5-Bromo-2-ethoxy-N-(3-(5-(furan-2-yl)-1,3,4-oxadiazol-2-yl)phenyl)benzamide] | 9 | 95 | 100 | < 0.1 | 0.031 | –
2 | COc1c(Br)cc(Br)cc1C(=O)Nc1cccc(-c2nnc(-c3ccco3)o2)c1 [Compound 168, 3,5-Dibromo-N-(3-(5-(furan-2-yl)-1,3,4-oxadiazol-2-yl)phenyl)-2-methoxybenzamide] | 27 | 100 | 100 | – | 0.048 | –
3 | COc1ccc(Br)cc1C(=O)Nc1cc(-c2nnc(-c3ccco3)o2)ccc1F [Compound 183, 5-Bromo-N-(2-fluoro-5-(5-(furan-2-yl)-1,3,4-oxadiazol-2-yl)phenyl)-2-methoxybenzamide] | 62 | 100 | – | < 0.1 | 0.024 | 100/100%
4 | COc1ccc(Cl)cc1C(=O)Nc1cc(-c2nnc(-c3ccco3)o2)ccc1F [Compound 184, 5-Chloro-N-(2-fluoro-5-(5-(furan-2-yl)-1,3,4-oxadiazol-2-yl)phenyl)-2-methoxybenzamide] | 57 | 100 | – | < 0.1 | 0.018 | 100/100%
5 | CCCOc1ccc(C)cc1C(=O)Nc1cc(-c2nnc(-c3ccco3)o2)ccc1F [Compound 208, N-(2-Fluoro-5-(5-(furan-2-yl)-1,3,4-oxadiazol-2-yl)phenyl)-5-methyl-2-propoxybenzamide] | 36 | 97 | – | – | 0.076 | 98%
6 | CCCOc1ccc(Cl)cc1C(=O)Nc1cc(-c2nnc(-c3ccco3)o2)ccc1F [Compound 209, 5-Chloro-N-(2-fluoro-5-(5-(furan-2-yl)-1,3,4-oxadiazol-2-yl)phenyl)-2-propoxybenzamide] | 37 | 100 | 100 | < 0.1 | 0.025 | –
7 | CCCOc1ccc(F)cc1C(=O)Nc1cc(-c2nnc(-c3ccco3)o2)ccc1F [Compound 210, 5-Fluoro-N-(2-fluoro-5-(5-(furan-2-yl)-1,3,4-oxadiazol-2-yl)phenyl)-2-propoxybenzamide] | 24 | 97 | 97 | – | 0.066 | –
8 | CCOc1ccc(Cl)cc1C(=O)Nc1cc(-c2nnc(-c3ccco3)o2)ccc1F [Compound 216, 5-chloro-2-ethoxy-N-(2-fluoro-5-(5-(furan-2-yl)-1,3,4-oxadiazol-2-yl)phenyl)benzamide] | 45 | 100 | – | < 0.1 | 0.019 | 100/100%
9 | CCOc1ccc(CC)cc1C(=O)Nc1cccc(-c2nnc(-c3ccco3)o2)c1 [Compound 219, 2-Ethoxy-5-ethyl-N-(3-(5-(furan-2-yl)-1,3,4-oxadiazol-2-yl)phenyl)benzamide] | 22 | 99 | – | < 0.1 | 0.034 | 98%
10 | CCOc1ccc(C)cc1C(=O)Nc1cc(-c2nnc(-c3ccco3)o2)ccc1F [Compound 221, 2-Ethoxy-N-(2-fluoro-5-(5-(furan-2-yl)-1,3,4-oxadiazol-2-yl)phenyl)-5-methylbenzamide] | 38 | 100 | – | < 0.1 | 0.031 | 100/100%
11 | CCOc1ccc(CC)cc1C(=O)Nc1cc(-c2nnc(-c3ccco3)o2)ccc1F [Compound 222, 2-Ethoxy-5-ethyl-N-(2-fluoro-5-(5-(furan-2-yl)-1,3,4-oxadiazol-2-yl)phenyl)benzamide] | 85 | 100 | – | < 0.035 | 0.008 | 97%
12 | COc1ccc(OC(F)(F)F)cc1C(=O)Nc1cccc(-c2nnc(-c3ccco3)o2)c1 [Compound 279, N-(3-(5-(Furan-2-yl)-1,3,4-oxadiazol-2-yl)phenyl)-2-methoxy-5-(trifluoromethoxy)benzamide] | 7 | 97 | – | – | 0.06 | –
13 | CCCc1ccc(OC)c(C(=O)Nc2cc(-c3nnc(-c4ccco4)o3)ccc2F)c1 [Compound 281, N-(2-Fluoro-5-(5-(furan-2-yl)-1,3,4-oxadiazol-2-yl)phenyl)-2-methoxy-5-propylbenzamide] | 65 | 100 | – | < 0.1 | 0.024 | 97%
14 | COc1ccc(C)cc1C(=O)Nc1cc(-c2nnc(-c3ccco3)o2)ccc1F [Compound 300, N-(2-Fluoro-5-(5-(furan-2-yl)-1,3,4-oxadiazol-2-yl)phenyl)-2-methoxy-5-methylbenzamide] | 31 | 96 | – | < 0.1 | 0.03 | –
15 | O=C(Nc1cc(-c2nnc(-c3ccco3)o2)ccc1F)c1ccccc1OC(F)F [Compound 302, 2-(Difluoromethoxy)-N-(2-fluoro-5-(5-(furan-2-yl)-1,3,4-oxadiazol-2-yl)phenyl)benzamide] | 20 | 97 | – | – | 0.036 | –
16 | O=C(Nc1cc(-c2nnc(-c3ccco3)o2)ccc1F)c1cc(Cl)ccc1OC(F)(F)F [Compound 304, 5-Chloro-N-(2-fluoro-5-(5-(furan-2-yl)-1,3,4-oxadiazol-2-yl)phenyl)-2-(trifluoromethoxy)benzamide] | 31 | 98 | – | < 0.1 | 0.02 | 96%
17 | O=C(Nc1cc(-c2nnc(-c3ccco3)o2)ccc1F)c1cc(Cl)ccc1OC(F)F [Compound 305, 5-Chloro-2-(difluoromethoxy)-N-(2-fluoro-5-(5-(furan-2-yl)-1,3,4-oxadiazol-2-yl)phenyl)benzamide] | 34 | 100 | – | < 0.1 | 0.021 | –

Row | Structure (SMILES) | inhibition at 3 µM (ALCAT1 [1]) [%] | inhibition at 1 µM (ALCAT1 [2]) [%] | inhibition at 10 µM (ALCAT1 [2]) [%] | IC50 (ALCAT1 [2]; [3]) [µM] | IC50 (ALCAT1 [2]; [4]) [µM] | % inh @ 1 μM (ALCAT1 [2])
18 | O=C(Nc1cc(-c2nnc(-c3ccco3)o2)ccc1F)c1cc(Cl)ccc1OCF [Compound 306, 5-Chloro-N-(2-fluoro-5-(5-(furan-2-yl)-1,3,4-oxadiazol-2-yl)phenyl)-2-(fluoromethoxy)benzamide] | 30 | 100 | – | < 0.1 | 0.019 | –
19 | Cc1c(C(=O)Nc2cc(-c3nnc(-c4ccco4)o3)ccc2F)cccc1[N+](=O)[O-] [Compound 332] | – | 30 | – | – | – | –
20 | COc1ccc(C(=O)Nc2cc(-c3nnc(-c4ccco4)o3)ccc2F)cc1[N+](=O)[O-] [Compound 333] | – | 18 | – | – | – | –
21 | Cc1ccc(C(=O)Nc2cc(-c3nnc(-c4ccco4)o3)ccc2F)cc1[N+](=O)[O-] [Compound 334] | – | 35 | – | – | – | –
22 | O=C(Nc1cccc(-c2nnc(-c3ccco3)o2)c1)c1cc([N+](=O)[O-])ccc1F [Compound 336] | – | 66 | – | – | – | –
23 | O=C(Nc1cccc(-c2nnc(-c3ccco3)o2)c1)c1cc([N+](=O)[O-])ccc1Cl [Compound 337] | – | 66 | – | – | 0.76 | –
24 | O=C(Nc1cccc(-c2nnc(-c3ccco3)o2)c1)c1cc(F)cc([N+](=O)[O-])c1 [Compound 338] | – | 65 | – | – | – | –
25 | O=C(Nc1cccc(-c2nnc(-c3ccco3)o2)c1)c1cccc([N+](=O)[O-])c1F [Compound 340] | – | 72 | – | – | – | –
26 | COc1ccc([N+](=O)[O-])cc1C(=O)Nc1cccc(-c2nnc(-c3ccco3)o2)c1 [Compound 341] | – | 73 | – | – | 0.5 | –
27 | COc1cc(C(=O)Nc2cccc(-c3nnc(-c4ccco4)o3)c2)cc([N+](=O)[O-])c1 [Compound 342] | – | 41 | – | – | – | –
28 | O=C(Nc1cccc(-c2nnc(-c3ccco3)o2)c1)c1c(F)ccc([N+](=O)[O-])c1F [Compound 344] | – | 33 | – | – | – | –
29 | O=C(Nc1cccc(-c2nnc(-c3ccco3)o2)c1)c1cncc([N+](=O)[O-])c1 [Compound 345] | – | 24 | – | – | – | –
30 | O=C(Nc1cc(-c2nnc(-c3ccco3)o2)ccc1F)c1cc(Cl)ccc1Cl [Compound 347] | – | 94 | – | – | – | –
31 | COc1ccc(Cl)cc1C(=O)Nc1cc(-c2nnc(-c3cnco3)o2)ccc1F [Compound 364] | – | – | – | – | 0.12 | –
32 | CC(C)Oc1ccc(Br)cc1C(=O)Nc1cccc(-c2nnc(-c3ccco3)o2)c1 [Compound 477] | – | 63 | 68 | – | – | –
33 | CC(C)Oc1ccc(Cl)cc1C(=O)Nc1cccc(-c2nnc(-c3ccco3)o2)c1 [Compound 478] | – | 57 | 62 | – | – | –
34 | COc1ccc(Cl)cc1NC(=O)c1cc(-c2nnc(-c3ccco3)o2)ccc1F [Compound 480, N-(5-chloro-2-methoxyphenyl)-2-fluoro-5-(5-(furan-2-yl)-1,3,4-oxadiazol-2-yl)benzamide] | – | 96 | – | – | – | –
